Measurements reported in ChEMBL document CHEMBL1142585, “Two new cytotoxic linderazulenes from a deep-sea gorgonian of the genus Paramuricea” (J Nat Prod, 2005).
Values after ≈ are worked out from the molar mass of the structure shown. Active and inactive are the calls of the source. The calls are words filed in the database; no cut-off is given here.

Key:
P388 = assay: Cytotoxicity against mouse P388 cells by MTT assay; format: functional, cell-based
PANC-1 = assay: Cytotoxicity against human PANC-1 cells by MTT assay; format: functional, cell-based
Candida albicans = assay: Antifungal activity against Candida albicans at 50 ug/mL; format: functional, organism-based

SMILES | IC50 (P388) [µg/mL] | IC50 (PANC-1) [µg/mL] | Activity (Candida albicans)
COC(=O)c1ccc2c(C)cc3occ(C)c3cc1-2 | 2.7 (≈ 10.6 µM) | 18.7 (≈ 73.5 µM) | inactive
Cc1cc2occ(C)c2cc2c(C)ccc1-2 [LINDERAZULENE] | 18.8 (≈ 89.4 µM) |  | inactive
Cc1cc2occ(C)c2cc2c(C=O)ccc1-2 | 15.6 (≈ 69.6 µM) |  | inactive
